In patent US6297241A, “Carbamate derivatives of diaryl 1,3,4-oxadiazolone” (Bristol-Myers Squibb Company, priority 2000, dated 2001):

Legend:
[1] = tested on: cloned mammalian (mSlo or hSlo) BK channels; experiment: Increase of cloned BK-mediated outward current in Xenopus oocytes, two-electrode voltage clamp; assay type: cell-based; conditions: 1 μM; at least 5 oocytes; mSlo or hSlo expressed in Xenopus oocytes
cortical infarct volume = experiment: Focal stroke model: permanent left MCA and CCA occlusion, temporary right CCA occlusion; assay type: in vivo; conditions: Wistar rat; 10 μg/kg i.v. single bolus two hours after MCA occlusion; measured 24 hours after MCAO
Procedure: To determine the ability of the compounds of the present invention to reduce cell loss resulting from neuronal ischemia, a standard focal cerebral ischemia is induced by permanent occlusion of the left middle cerebral artery (MCA) and common carotid artery (CCA) with one hour occlusion of the right CCA in the Wistar rat. The surgeries are performed using the sub-temporal approach of A. Tamura, et al., J. Cereb. Blood Flow Metab., 1, pp. 53-60, (1981) and its modifications [K. Osborne, et al., J. Neurol Neurosurg. Psychiatry, 50, pp. 402-410 (1987) and S. Menzies, et al., Neurosurgery, 31, pp.100-107, (1992).]
The compound of Example 1 was evaluated in the focal stroke model involving permanent occlusion of the left MCA (MCAO) and CCA (CCAO) and temporary occlusion of the right CCA in the Wistar rat. This procedure results in a reliably large neocortical infarct volume that is measured by means of vital dye exclusion in serial slices through the brain 24 hours after MCAO. In the present test, compounds were administered using an i.v. or i.p. route of administration two hours after occlusion.

[2] = tested on: non-BK native currents in the oocytes; experiment: Effect on non-BK native currents (current remaining with IBTX) in oocytes; conditions: at the tested concentration; IBTX 50 nM
[3] = Rapid screen of prodrug hydrolysis and drug release in plasma (HPLC); assay type: in vitro ADME; conditions: fresh rat plasma, 37° C., 10 μg/mL, stock in PEG-400, analysis 5 minutes after incubation
Procedure: A rapid screen to determine the ability of prodrugs to hydrolyze and release the drug (compound of Example 1) is conducted as follows. A 1 mg/mL stock solution of the prodrug is prepared in distilled water or acetonitrile or PEG-400. Plasma from freshly collected rat or human blood is used in this assay. To 1 mL of plasma at 37° C. was added 10 μL of stock solution of prodrug and mixed gently. Immediately after the mixing, 100 μL of plasma was removed and quenched with 300 μL of acetonitrile (Zero time sample). Samples were also obtained at 30 minutes and quenched immediately. The quenched samples were centrifuged to obtain a clear supernatant for analysis. The stock solution, T=0 and T=30 samples were analyzed by a HPLC assay that separates the drug from the prodrug. Based on the relative peak areas of prodrug and drug in these samples, different prodrugs are characterized as fast, moderate and slow release agents. For example, in this model, the compound of Example 2 was dissolved in PEG-400 at a concentration of 1 mg/mL and incubated at 10 μg/mL in fresh rat plasma at 37° C.

Row | SMILES | BK current as % of control of IBTX-sensitive current [1] [%] | Reduction of cortical infarct volume vs vehicle-treated (water) control (cortical infarct volume) | Effect on non-BK native currents in the oocytes [2] | Conversion of prodrug to the drug (compound of Example 1) in plasma [3]
1 | O=c1oc(-c2ccc(C(F)(F)F)cc2)nn1Cc1cc(Cl)ccc1O [Example 1] | 126 | about 18% | did not effect non-BK native currents | 
2 | O=C(O)CC(NC(=O)Oc1ccc(Cl)cc1Cn1nc(-c2ccc(C(F)(F)F)cc2)oc1=O)C(=O)O (stereo not shown) [Example 2, N-[[4-Chloro-2-[[5-[4-(trifluoromethyl)phenyl]-2. 3-dihydro-2-oxo-1,3,4-oxadiazol-3-yl]methyl]phenoxy]carbonyl]aspartic acid] |  |  |  | conversion of the compound of Example 2 to the compound of Example 1
